Experimental data: ChEMBL document CHEMBL3091331, “Aminothiazole-featured pirinixic acid derivatives as dual 5-lipoxygenase and microsomal prostaglandin E2 synthase-1 inhibitors with improved potency and efficiency in vivo” (J Med Chem, 2013)
The source made the active and inactive calls. The calls are words filed in the database; no cut-off is given here.

Columns and labels:
[1] = molecular target: Mitogen-activated protein kinase 1 (Homo sapiens) (UniProt P28482); test: Inhibition of fMLP-mediated ERK2 phosphorylation in human polymorphonuclear leukocytes incubated for 15 mins prior to fMLP-challenge measured after 1.5 mins by SDS-PAGE analysis; format: cell-based
Chain of Mitogen-activated protein kinase 1 (Homo sapiens) (P28482 whole entry): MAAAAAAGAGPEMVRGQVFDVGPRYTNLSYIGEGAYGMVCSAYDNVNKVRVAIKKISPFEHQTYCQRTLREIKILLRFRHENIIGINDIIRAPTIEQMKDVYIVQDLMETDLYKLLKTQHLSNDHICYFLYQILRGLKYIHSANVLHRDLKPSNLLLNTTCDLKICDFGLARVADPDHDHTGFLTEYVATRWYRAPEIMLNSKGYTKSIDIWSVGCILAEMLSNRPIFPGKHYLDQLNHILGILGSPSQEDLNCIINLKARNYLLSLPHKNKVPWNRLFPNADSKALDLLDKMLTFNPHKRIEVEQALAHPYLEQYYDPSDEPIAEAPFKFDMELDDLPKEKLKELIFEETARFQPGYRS

[2] = (§1) Inhibition of reactive oxygen species generation in fMLP-stimulated human polymorphonuclear leukocytes incubated for 15 mins prior to fMLP-challenge by fluorescence assay; format: functional
Homo sapiens = organism: Homo sapiens; test: as §1; format: functional
[3] = tested on: Radical scavenging activity; test: Antioxidant activity assessed as DPPH radical scavenging activity at 10 uM after 30 mins; format: functional
[4] = Cytotoxicity against human polymorphonuclear leukocytes at 10 uM after 1 hr by light microscopic analysis
[5] = Metabolic stability in Sprague-Dawley rat liver microsomes assessed as compound remaining at 10 uM after 60 mins by HPLC analysis; format: ADME; details: read-out: Stability
[6] = molecular target: T1, Polyunsaturated fatty acid 5-lipoxygenase (Homo sapiens, UniProt P09917); test: Inhibition of human recombinant 5-lipoxygenase expressed in Escherichia coli BL21 using arachidonic acid as substrate incubated 5 to 10 mins prior to substrate addition measured after 10 mins by HPLC analysis
T1 sequence (P09917 whole entry): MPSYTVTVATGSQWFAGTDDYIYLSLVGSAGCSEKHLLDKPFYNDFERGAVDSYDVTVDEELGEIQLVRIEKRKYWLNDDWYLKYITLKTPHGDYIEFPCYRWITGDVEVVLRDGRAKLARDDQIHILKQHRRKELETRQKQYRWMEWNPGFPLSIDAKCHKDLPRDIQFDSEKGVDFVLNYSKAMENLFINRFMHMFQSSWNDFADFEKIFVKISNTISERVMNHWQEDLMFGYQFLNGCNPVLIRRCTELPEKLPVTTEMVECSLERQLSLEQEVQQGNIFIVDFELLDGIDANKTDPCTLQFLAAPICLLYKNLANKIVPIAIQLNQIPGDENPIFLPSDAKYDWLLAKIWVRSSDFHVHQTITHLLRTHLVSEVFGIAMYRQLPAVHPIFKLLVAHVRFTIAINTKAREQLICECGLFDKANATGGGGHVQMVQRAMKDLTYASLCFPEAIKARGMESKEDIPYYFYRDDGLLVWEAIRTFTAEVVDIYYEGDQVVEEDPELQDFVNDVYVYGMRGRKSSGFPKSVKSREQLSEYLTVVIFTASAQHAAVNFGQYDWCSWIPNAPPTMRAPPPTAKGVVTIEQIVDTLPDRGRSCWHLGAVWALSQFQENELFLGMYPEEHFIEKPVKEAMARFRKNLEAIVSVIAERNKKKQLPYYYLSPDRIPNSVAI

Prostaglandin E synthase = molecular target: T2, Prostaglandin E synthase (Homo sapiens, UniProt O14684); test: Inhibition of mPGES-1 from human A549 cell microsomal membranes using PGH2 as substrate incubated 15 mins prior to substrate addition measured after 1 min by RP-HPLC analysis
T2 sequence (O14684 whole entry): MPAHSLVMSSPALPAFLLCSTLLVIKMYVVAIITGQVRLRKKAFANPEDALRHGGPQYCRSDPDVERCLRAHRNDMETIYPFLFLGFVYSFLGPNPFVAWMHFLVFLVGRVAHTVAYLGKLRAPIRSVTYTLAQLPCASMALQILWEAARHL

Mus musculus = test: Reduction of PGE2 biosynthesis in CD-1 mouse peritonitis model at 10 mg/kg, ip administered 30 mins prior to zymosan-challenge measured after 4 hrs by RIA relative to vehicle-treated control; format: functional; details: CD-1, ip, route intraperitoneal
[7] = molecular target: T3, Prostaglandin G/H synthase 2 (Homo sapiens) (UniProt P35354); details: at 10 µM
T3 sequence (whole entry): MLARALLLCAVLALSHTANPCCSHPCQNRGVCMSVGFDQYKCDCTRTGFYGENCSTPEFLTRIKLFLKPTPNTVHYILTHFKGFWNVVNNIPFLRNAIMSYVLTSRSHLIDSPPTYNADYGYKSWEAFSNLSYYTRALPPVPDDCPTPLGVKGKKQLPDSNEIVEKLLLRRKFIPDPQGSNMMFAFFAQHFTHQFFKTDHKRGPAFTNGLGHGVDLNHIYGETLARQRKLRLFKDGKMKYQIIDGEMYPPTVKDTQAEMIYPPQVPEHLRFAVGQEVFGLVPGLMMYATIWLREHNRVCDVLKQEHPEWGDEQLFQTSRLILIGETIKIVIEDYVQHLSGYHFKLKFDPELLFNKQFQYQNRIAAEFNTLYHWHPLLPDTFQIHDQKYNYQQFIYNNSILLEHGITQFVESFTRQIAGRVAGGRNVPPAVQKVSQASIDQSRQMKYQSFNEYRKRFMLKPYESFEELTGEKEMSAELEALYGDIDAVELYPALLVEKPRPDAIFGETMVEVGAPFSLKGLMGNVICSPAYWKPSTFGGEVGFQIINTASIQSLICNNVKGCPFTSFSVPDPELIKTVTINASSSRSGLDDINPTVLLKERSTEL
Description: Inhibition of human recombinant COX2 using arachidonic acid as substrate at 10 uM incubated 5 mins prior to substrate addition measured after 5 mins by HPLC analysis

[8] = molecular target: T4, Polyunsaturated fatty acid lipoxygenase ALOX12 (Homo sapiens) (UniProt P18054); test: Inhibition of 12-lipoxygenase in human polymorphonuclear leukocytes using arachidonic acid as substrate assessed as remaining activity at 10 uM incubated 15 mins prior to substrate addition measured after 10 mins by HPLC analysis relative to control; format: cell-based
T4 sequence (whole entry): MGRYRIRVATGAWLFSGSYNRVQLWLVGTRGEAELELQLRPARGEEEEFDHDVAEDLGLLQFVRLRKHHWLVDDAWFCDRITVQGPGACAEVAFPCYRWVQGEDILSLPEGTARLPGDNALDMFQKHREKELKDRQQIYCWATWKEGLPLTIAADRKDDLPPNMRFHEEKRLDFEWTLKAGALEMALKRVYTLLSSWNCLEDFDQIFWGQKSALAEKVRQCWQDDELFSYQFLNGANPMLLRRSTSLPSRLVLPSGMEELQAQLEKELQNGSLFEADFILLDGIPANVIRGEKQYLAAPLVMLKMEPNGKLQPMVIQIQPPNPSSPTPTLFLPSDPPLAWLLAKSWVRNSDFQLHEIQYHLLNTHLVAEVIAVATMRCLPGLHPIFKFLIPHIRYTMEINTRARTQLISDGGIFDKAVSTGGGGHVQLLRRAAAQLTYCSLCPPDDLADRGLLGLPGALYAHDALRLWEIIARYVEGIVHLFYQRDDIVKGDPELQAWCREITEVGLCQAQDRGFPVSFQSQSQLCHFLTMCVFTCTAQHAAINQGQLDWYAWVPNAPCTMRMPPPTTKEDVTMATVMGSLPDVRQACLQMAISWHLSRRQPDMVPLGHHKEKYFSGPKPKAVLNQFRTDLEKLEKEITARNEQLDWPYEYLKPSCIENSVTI

[9] = molecular target: MAP kinase p38 (Homo sapiens) (UniProt O15264+Q15759+Q16539+P53778); test: Inhibition of fMLP-mediated p38 MAPK phosphorylation in human polymorphonuclear leukocytes incubated for 15 mins prior to fMLP-challenge measured after 1.5 mins by SDS-PAGE analysis; format: cell-based

- inhibition [1]: inactive
- IC50 [2]: 3000 nM
- remaining at 1 h, 10 µM [5]: 77%
- IC50 [6]: 300 nM
- IC50 (Prostaglandin E synthase): 400 nM
- inhibition [7]: 18%
- Activity [8]: 168%
- inhibition [9]: inactive
SMILES: CCCCCCC(Sc1nc(Cl)cc(Nc2nc(-c3ccc4ccccc4c3)cs2)n1)C(=O)O (racemic)
- inhibition (Homo sapiens): Dose-dependent effect
- Activity [3]: inactive
- Activity [4]: Non-toxic
- inhibition in vivo at 10 mg/kg (Mus musculus): 46%
